Data published in paper PMC2697495 (The Journal of pharmacy and pharmacology, 2008).
Marks after values point to notes of the source that are not given here.

Experiments:
[1] = system: pooled human liver microsomes (pHLMs); assay: 5-HT glucuronidation by pooled human liver microsomes; type: biochemical; settings: pHLM, 4 mM 5-HT, n=3
UGT1A6 (insect) = biological target: T1, UGT1A6 (insect) (Homo sapiens, UniProt P19224); assay: 5-HT glucuronidation by recombinant UGT1A6; type: biochemical; settings: for 5-HT glucuronidation, % of the control activity (measured at 0 mM): UGT1A6 (insect), 4 mM 5-HT, n=3
T1 sequence (P19224 27-532): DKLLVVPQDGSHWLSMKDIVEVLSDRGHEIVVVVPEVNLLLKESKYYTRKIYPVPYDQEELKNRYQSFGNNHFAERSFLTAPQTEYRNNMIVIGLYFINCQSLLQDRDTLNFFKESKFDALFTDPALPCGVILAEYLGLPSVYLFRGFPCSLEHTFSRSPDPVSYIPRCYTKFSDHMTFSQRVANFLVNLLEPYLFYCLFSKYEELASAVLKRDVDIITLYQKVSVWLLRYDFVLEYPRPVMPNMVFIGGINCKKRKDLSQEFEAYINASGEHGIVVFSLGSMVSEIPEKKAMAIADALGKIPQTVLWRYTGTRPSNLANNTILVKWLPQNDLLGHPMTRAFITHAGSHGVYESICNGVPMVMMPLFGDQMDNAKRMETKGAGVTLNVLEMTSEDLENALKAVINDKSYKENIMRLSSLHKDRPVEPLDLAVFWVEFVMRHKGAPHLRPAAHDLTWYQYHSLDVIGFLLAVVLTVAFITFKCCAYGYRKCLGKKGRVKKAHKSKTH

UGT1A4 = biological target: T2, UGT1A4 (Homo sapiens, UniProt P22310); assay: Trifluoperazine glucuronidation by recombinant UGT1A4; type: biochemical; settings: for Trifluoperazine glucuronidation, % of the control activity (measured at 0 mM): UGT1A4, 200 μM trifluoperazine, n=3
T2 sequence (P22310 29-534): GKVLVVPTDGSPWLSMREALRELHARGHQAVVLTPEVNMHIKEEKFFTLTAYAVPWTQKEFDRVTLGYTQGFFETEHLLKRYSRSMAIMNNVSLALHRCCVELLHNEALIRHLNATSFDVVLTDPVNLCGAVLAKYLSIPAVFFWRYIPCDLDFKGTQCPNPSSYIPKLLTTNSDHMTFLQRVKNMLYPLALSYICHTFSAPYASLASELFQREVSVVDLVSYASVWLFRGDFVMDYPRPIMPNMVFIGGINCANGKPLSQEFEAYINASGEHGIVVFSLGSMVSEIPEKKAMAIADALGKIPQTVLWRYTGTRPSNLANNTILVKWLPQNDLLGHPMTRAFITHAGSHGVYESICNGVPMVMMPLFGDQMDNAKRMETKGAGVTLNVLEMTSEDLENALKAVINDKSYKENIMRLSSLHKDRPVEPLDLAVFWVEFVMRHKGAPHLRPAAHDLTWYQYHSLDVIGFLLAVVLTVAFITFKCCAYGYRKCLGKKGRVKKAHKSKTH

[2] = system: pooled human liver microsomes (pHLMs); assay: Codeine glucuronidation by pHLMs; type: biochemical; settings: for Codeine glucuronidation, % of the control activity (measured at 0 mM): pHLM, 1 mM codeine, n=3
[3] = system: pooled human liver microsomes (pHLMs); assay: AZT glucuronidation by pHLMs; type: biochemical; settings: pHLM, 500 μM AZT, n=3
UGT1A9 = UGT1A9 (Homo sapiens, UniProt O60656); assay: Salicylic acid; type: biochemical; settings: 5 mM salicylic acid, n=3
Sequence of UGT1A9 (O60656 26-530): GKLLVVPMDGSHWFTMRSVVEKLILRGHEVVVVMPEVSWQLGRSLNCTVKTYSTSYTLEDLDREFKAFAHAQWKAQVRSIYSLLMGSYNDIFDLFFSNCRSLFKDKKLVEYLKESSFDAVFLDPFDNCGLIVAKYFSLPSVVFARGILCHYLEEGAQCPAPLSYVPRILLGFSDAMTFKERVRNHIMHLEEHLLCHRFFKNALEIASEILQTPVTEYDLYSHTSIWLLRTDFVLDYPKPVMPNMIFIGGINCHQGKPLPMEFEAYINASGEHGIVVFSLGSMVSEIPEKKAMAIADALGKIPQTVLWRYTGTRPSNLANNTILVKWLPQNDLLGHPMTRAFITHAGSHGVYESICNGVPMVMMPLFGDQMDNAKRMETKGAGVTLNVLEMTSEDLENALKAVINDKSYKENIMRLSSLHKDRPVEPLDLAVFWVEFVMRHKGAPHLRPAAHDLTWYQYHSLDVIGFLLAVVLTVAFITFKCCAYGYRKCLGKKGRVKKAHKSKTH

[4] = system: pooled human liver microsomes (pHLMs); assay: Estradiol-3 glucuronidation by pHLMs; type: biochemical; settings: for Estradiol-3 glucuronidation, % of the control activity (measured at 0 mM): pHLM, 100 μM estradiol, n=3
UGT2B7 = biological target: T3, UGT2B7 (Homo sapiens, UniProt P16662); assay: Estradiol-17 glucuronidation by recombinant UGT2B7; type: biochemical; settings: for Estradiol-17 glucuronidation, % of the control activity (measured at 0 mM): UGT2B7, 100 μM estradiol, n=3
T3 sequence (P16662 24-529): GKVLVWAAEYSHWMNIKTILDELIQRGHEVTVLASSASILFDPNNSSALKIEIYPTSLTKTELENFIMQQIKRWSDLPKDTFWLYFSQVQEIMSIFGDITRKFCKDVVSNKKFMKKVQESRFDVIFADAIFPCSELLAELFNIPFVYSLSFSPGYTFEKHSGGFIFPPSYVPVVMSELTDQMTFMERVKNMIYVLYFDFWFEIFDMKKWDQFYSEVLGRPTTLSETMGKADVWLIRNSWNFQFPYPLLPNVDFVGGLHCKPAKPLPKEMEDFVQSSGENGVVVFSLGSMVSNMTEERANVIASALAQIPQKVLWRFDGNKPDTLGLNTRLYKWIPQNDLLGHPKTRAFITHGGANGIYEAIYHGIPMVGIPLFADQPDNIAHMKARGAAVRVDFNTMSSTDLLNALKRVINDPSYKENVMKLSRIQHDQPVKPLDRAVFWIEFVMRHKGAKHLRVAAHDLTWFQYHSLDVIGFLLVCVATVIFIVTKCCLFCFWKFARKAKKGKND

[5] = system: pooled human liver microsomes (pHLMs); assay: e-4-hydroxy-tamoxifen glucuronidation by pHLMs; type: biochemical; settings: 20 mM saccharolactone, pH-adjusted to 7.5
[6] = Effect of saccharolactone on pH of 50 mM potassium phosphate incubation buffer; type: physicochemical
HLMs [7] = settings: 5 mM saccharolactone, ref Alkharfy & Frye 2001; cited from earlier work
HLMs [8] = settings: 5 mM saccharolactone, ref Kemp et al 2002; cited from earlier work
rats = settings: in vivo in rats; ref Brunelle and Verbeeck (1997); cited from earlier work

O=C(O)[C@@H](O)[C@H]1OC(=O)[C@H](O)[C@H]1O [saccharolactone, D-saccharic acid 1,4-lactone]
5-HT glucuronidation, % of the control activity (measured at 0 mM) ([1]; 1 mM saccharolactone (pH-adjusted)): 104±8% | 5-HT glucuronidation, % of the control activity (measured at 0 mM) ([1]; 2 mM saccharolactone (pH-adjusted)): 93±5% | 5-HT glucuronidation, % of the control activity (measured at 0 mM) ([1]; 5 mM saccharolactone (pH-adjusted)): 86±4 ^a % | 5-HT glucuronidation, % of the control activity (measured at 0 mM) ([1]; 10 mM saccharolactone (pH-adjusted)): 87±4 ^a % | 5-HT glucuronidation, % of the control activity (measured at 0 mM) ([1]; 20 mM saccharolactone (pH-adjusted)): 63±5 ^a % | 5-HT glucuronidation, % of the control activity (measured at 0 mM) (UGT1A6 (insect); 5 mM saccharolactone): 88±7% | 5-HT glucuronidation, % of the control activity (measured at 0 mM) (UGT1A6 (insect); 20 mM saccharolactone): 96±0% | effect on 5-hydroxytryptamine glucuronidation (UGT1A6 (insect); UGT1A6 expressed in insect cells, saccharolactone up to 20 mM): no effect | Trifluoperazine glucuronidation, % of the control activity (measured at 0 mM) (UGT1A4; 5 mM saccharolactone): 90±4% | Trifluoperazine glucuronidation, % of the control activity (measured at 0 mM) (UGT1A4; 20 mM saccharolactone): 82±5 ^a % | inhibition at 20 mM (UGT1A4; human, pH 7.5, probe trifluoperazine): 18% | Codeine glucuronidation, % of the control activity (measured at 0 mM) ([2]; 1 mM saccharolactone): 98±7% | Codeine glucuronidation, % of the control activity (measured at 0 mM) ([2]; 2 mM saccharolactone): 97±4% | Codeine glucuronidation, % of the control activity (measured at 0 mM) ([2]; 5 mM saccharolactone): 91±2 ^a % | Codeine glucuronidation, % of the control activity (measured at 0 mM) ([2]; 10 mM saccharolactone): 95±5% | Codeine glucuronidation, % of the control activity (measured at 0 mM) ([2]; 20 mM saccharolactone): 88±8% | inhibition of codeine glucuronidation ([2]; pHLMs, 5 mM saccharolactone, p<0.05): 9% | AZT glucuronidation, % of the control activity (measured at 0 mM) ([3]; 1 mM saccharolactone): 96±2% | AZT glucuronidation, % of the control activity (measured at 0 mM) ([3]; 2 mM saccharolactone): 98±2% | AZT glucuronidation, % of the control activity (measured at 0 mM) ([3]; 5 mM saccharolactone): 94±2% | AZT glucuronidation, % of the control activity (measured at 0 mM) ([3]; 10 mM saccharolactone): 94±3% | AZT glucuronidation, % of the control activity (measured at 0 mM) ([3]; 20 mM saccharolactone): 94±1% | Salicylic Acid glucuronidation, % of the control activity (measured at 0 mM) (UGT1A9; 5 mM saccharolactone): 96±7% | Salicylic Acid glucuronidation, % of the control activity (measured at 0 mM) (UGT1A9; 20 mM saccharolactone): 99±7% | Estradiol-3 glucuronidation, % of the control activity (measured at 0 mM) ([4]; 1 mM saccharolactone): 68±5% | Estradiol-3 glucuronidation, % of the control activity (measured at 0 mM) ([4]; 2 mM saccharolactone): 84±1% | Estradiol-3 glucuronidation, % of the control activity (measured at 0 mM) ([4]; 5 mM saccharolactone): 76±9 ^a % | Estradiol-3 glucuronidation, % of the control activity (measured at 0 mM) ([4]; 10 mM saccharolactone): 67±5 ^a % | Estradiol-3 glucuronidation, % of the control activity (measured at 0 mM) ([4]; 20 mM saccharolactone): 67±7 ^a % | decrease in estradiol-3 glucuronidation activity ([4]; pHLMs, 20 mM saccharolactone, p<0.05): 33% | Estradiol-17 glucuronidation, % of the control activity (measured at 0 mM) (UGT2B7; 5 mM saccharolactone): 97±2% | Estradiol-17 glucuronidation, % of the control activity (measured at 0 mM) (UGT2B7; 20 mM saccharolactone): 87±7 ^a % | reduction in estradiol-17 glucuronidation activity (UGT2B7; recombinant UGT2B7, 20 mM saccharolactone, p<0.05): 13% | decrease in e-4-hydroxy-tamoxifen glucuronidation activity [5]: 17% | pH of incubation buffer after adding saccharolactone ([6]; 20 mM saccharolactone in 50 mM potassium phosphate, initially pH 7.5): 6.8 | effect on pH of incubation buffer ([6]; saccharolactone up to 5 mM in 50 mM potassium phosphate pH 7.5): minimal effect on pH | decrease of acetaminophen glucuronidation (HLMs [7]): 45% | effect on raloxifene glucuronidation (HLMs [8]): inhibited | effect on partial clearance of diflunisal acyl glucuronide (rats): increase | effect on partial clearance of diflunisal phenol glucuronide (rats): little effect
